Measured values reported in patent publication US20190119298A1, “FUSED 3-PHENYLTETRAMIC ACID DERIVATIVES HAVING HERBICIDAL ACTION” (Bayer CropScience Aktiengesellschaft, priority 2016, published 2019).

Tests used:
Format in all cases: in vivo
Alopecurus myosuroides [1] = assay: Pre-emergence herbicidal effect; details: 320 g/ha, scored visually after 3 weeks vs untreated controls, 100% = plants have died
Source text: (§1) Seeds of monocotyledonous and dicotyledonous weed plants and crop plants are laid out in sandy loam soil in wood-fibre pots and covered with soil. The compounds of the invention, formulated in the form of wettable powders (WP) or as emulsion concentrates (EC), are then applied to the surface of the covering soil as aqueous suspension or emulsion at a water application rate equating to 600 to 800 L/ha with addition of 0.2% wetting agent. After the treatment, the pots are placed in a greenhouse and kept under good growth conditions for the trial plants. The damage to the test plants is scored visually after a test period of 3 weeks by comparison with untreated controls (herbicidal activity in percent (%): 100% activity=the plants have died, 0% activity=like control plants). ALOMY: Alopecurus myosuroides

Avena fatua [2] = assay: Pre-emergence herbicidal effect; details: 320 g/ha, scored visually after 3 weeks vs untreated controls, 100% = plants have died
Source text: as §1, with “AVEFA: Avena fatua” for “ALOMY: Alopecurus myosuroides”

Echinochloa crus-galli [3] = assay: Pre-emergence herbicidal effect; details: 320 g/ha, scored visually after 3 weeks vs untreated controls, 100% = plants have died
Source text: as §1, with “ECHCG: Echinochloa crus-galli” for “ALOMY: Alopecurus myosuroides”

Lolium multiflorum [4] = assay: Pre-emergence herbicidal effect; details: 320 g/ha, scored visually after 3 weeks vs untreated controls, 100% = plants have died
Source text: as §1, with “LOLMU: Lolium multiflorum” for “ALOMY: Alopecurus myosuroides”

Setaria viridis [5] = assay: Pre-emergence herbicidal effect; details: 320 g/ha, scored visually after 3 weeks vs untreated controls, 100% = plants have died
Source text: as §1, with “SETVI: Setaria viridis” for “ALOMY: Alopecurus myosuroides”

Alopecurus myosuroides [6] = assay: Post-emergence herbicidal effect; details: one-leaf stage, 320 g/ha, assessed visually after about 3 weeks, 100% = plants have died
Description: (§2) ALOMY: Alopecurus myosuroides Seeds of monocotyledonous and dicotyledonous weed and crop plants are laid out in sandy loam soil in wood-fibre pots, covered with soil and cultivated in a greenhouse under good growth conditions. 2 to 3 weeks after sowing, the test plants are treated at the one-leaf stage. The compounds of the invention, formulated in the form of wettable powders (WP) or as emulsion concentrates (EC), are then sprayed onto the green parts of the plants as aqueous suspension or emulsion at a water application rate equating to 600 to 800 L/ha with addition of 0.2% wetting agent. After the test plants have been left to stand in the greenhouse under optimal growth conditions for about 3 weeks, the action of the preparations is assessed visually in comparison to untreated controls (herbicidal action in percent (%): 100% activity=the plants have died, 0% activity=like control plants).

Avena fatua [7] = assay: Post-emergence herbicidal effect; details: one-leaf stage, 320 g/ha, assessed visually after about 3 weeks, 100% = plants have died
Description: as §2, with “AVEFA: Avena fatua” for “ALOMY: Alopecurus myosuroides”

Echinochloa crus-galli [8] = assay: Post-emergence herbicidal effect; details: one-leaf stage, 320 g/ha, assessed visually after about 3 weeks, 100% = plants have died
Description: as §2, with “ECHCG: Echinochloa crus-galli” for “ALOMY: Alopecurus myosuroides”

Lolium multiflorum [9] = assay: Post-emergence herbicidal effect; details: one-leaf stage, 320 g/ha, assessed visually after about 3 weeks, 100% = plants have died
Description: as §2, with “LOLMU: Lolium multiflorum” for “ALOMY: Alopecurus myosuroides”

Setaria viridis [10] = assay: Post-emergence herbicidal effect; details: one-leaf stage, 320 g/ha, assessed visually after about 3 weeks, 100% = plants have died
Description: as §2, with “SETVI: Setaria viridis” for “ALOMY: Alopecurus myosuroides”

Compound: Cc1cc(C)c(C2=C(O)C3CCOCCN3C2=O)c(C)c1 (centres unmarked) [Ia-1-1]
- Pre-emergence action ALOMY (herbicidal activity in percent) (Alopecurus myosuroides [1]): 100%
- Pre-emergence action AVEFA (herbicidal activity in percent) (Avena fatua [2]): 100%
- Pre-emergence action ECHCG (herbicidal activity in percent) (Echinochloa crus-galli [3]): 100%
- Pre-emergence action LOLMU (herbicidal activity in percent) (Lolium multiflorum [4]): 100%
- Pre-emergence action SETVI (herbicidal activity in percent) (Setaria viridis [5]): 90%
- Post-emergence effectiveness ALOMY (herbicidal action in percent) (Alopecurus myosuroides [6]): 100%
- Post-emergence effectiveness AVEFA (herbicidal action in percent) (Avena fatua [7]): 100%
- Post-emergence effectiveness ECHCG (herbicidal action in percent) (Echinochloa crus-galli [8]): 100%
- Post-emergence effectiveness LOLMU (herbicidal action in percent) (Lolium multiflorum [9]): 100%
- Post-emergence effectiveness SETVI (herbicidal action in percent) (Setaria viridis [10]): 100%

Compound: CCc1cc(C)cc(C)c1C1=C(O)C2CCOCCN2C1=O (centres unmarked) [Ia-1-2]
- Pre-emergence action ALOMY (herbicidal activity in percent) (Alopecurus myosuroides [1]): 100%
- Pre-emergence action AVEFA (herbicidal activity in percent) (Avena fatua [2]): 100%
- Pre-emergence action ECHCG (herbicidal activity in percent) (Echinochloa crus-galli [3]): 100%
- Pre-emergence action LOLMU (herbicidal activity in percent) (Lolium multiflorum [4]): 100%
- Pre-emergence action SETVI (herbicidal activity in percent) (Setaria viridis [5]): 100%
- Post-emergence effectiveness ALOMY (herbicidal action in percent) (Alopecurus myosuroides [6]): 100%
- Post-emergence effectiveness AVEFA (herbicidal action in percent) (Avena fatua [7]): 100%
- Post-emergence effectiveness ECHCG (herbicidal action in percent) (Echinochloa crus-galli [8]): 100%
- Post-emergence effectiveness LOLMU (herbicidal action in percent) (Lolium multiflorum [9]): 100%
- Post-emergence effectiveness SETVI (herbicidal action in percent) (Setaria viridis [10]): 100%

Compound: CCc1cccc(C)c1C1=C(O)C2CCOCCN2C1=O (centres unmarked) [Ia-1-4]
- Pre-emergence action ALOMY (herbicidal activity in percent) (Alopecurus myosuroides [1]): 80%
- Pre-emergence action AVEFA (herbicidal activity in percent) (Avena fatua [2]): 100%
- Pre-emergence action ECHCG (herbicidal activity in percent) (Echinochloa crus-galli [3]): 100%
- Pre-emergence action LOLMU (herbicidal activity in percent) (Lolium multiflorum [4]): 100%
- Pre-emergence action SETVI (herbicidal activity in percent) (Setaria viridis [5]): 100%
- Post-emergence effectiveness ALOMY (herbicidal action in percent) (Alopecurus myosuroides [6]): 100%
- Post-emergence effectiveness AVEFA (herbicidal action in percent) (Avena fatua [7]): 100%
- Post-emergence effectiveness ECHCG (herbicidal action in percent) (Echinochloa crus-galli [8]): 100%
- Post-emergence effectiveness LOLMU (herbicidal action in percent) (Lolium multiflorum [9]): 100%
- Post-emergence effectiveness SETVI (herbicidal action in percent) (Setaria viridis [10]): 100%

Compound: CCc1cc(Cl)cc(OC)c1C1=C(O)C2CCOCCN2C1=O (centres unmarked) [Ia-1-6]
- Pre-emergence action ALOMY (herbicidal activity in percent) (Alopecurus myosuroides [1]): 100%
- Pre-emergence action AVEFA (herbicidal activity in percent) (Avena fatua [2]): 100%
- Pre-emergence action ECHCG (herbicidal activity in percent) (Echinochloa crus-galli [3]): 100%
- Pre-emergence action LOLMU (herbicidal activity in percent) (Lolium multiflorum [4]): 100%
- Pre-emergence action SETVI (herbicidal activity in percent) (Setaria viridis [5]): 100%
- Post-emergence effectiveness ALOMY (herbicidal action in percent) (Alopecurus myosuroides [6]): 100%
- Post-emergence effectiveness AVEFA (herbicidal action in percent) (Avena fatua [7]): 100%
- Post-emergence effectiveness ECHCG (herbicidal action in percent) (Echinochloa crus-galli [8]): 100%
- Post-emergence effectiveness LOLMU (herbicidal action in percent) (Lolium multiflorum [9]): 100%
- Post-emergence effectiveness SETVI (herbicidal action in percent) (Setaria viridis [10]): 100%

Compound: CCc1cc(Cl)cc(OC)c1C1=C(O)C2=CCOCCN2C1=O [Ia-3-4]
- Pre-emergence action ALOMY (herbicidal activity in percent) (Alopecurus myosuroides [1]): 80%
- Pre-emergence action AVEFA (herbicidal activity in percent) (Avena fatua [2]): 80%
- Pre-emergence action ECHCG (herbicidal activity in percent) (Echinochloa crus-galli [3]): 90%
- Pre-emergence action LOLMU (herbicidal activity in percent) (Lolium multiflorum [4]): 90%
- Pre-emergence action SETVI (herbicidal activity in percent) (Setaria viridis [5]): 100%
- Post-emergence effectiveness ALOMY (herbicidal action in percent) (Alopecurus myosuroides [6]): 100%
- Post-emergence effectiveness AVEFA (herbicidal action in percent) (Avena fatua [7]): 100%
- Post-emergence effectiveness ECHCG (herbicidal action in percent) (Echinochloa crus-galli [8]): 100%
- Post-emergence effectiveness LOLMU (herbicidal action in percent) (Lolium multiflorum [9]): 100%
- Post-emergence effectiveness SETVI (herbicidal action in percent) (Setaria viridis [10]): 100%

Compound: CCOC(=O)OC1=C(c2c(CC)cc(C)cc2CC)C(=O)N2CCOCCC12 (centres unmarked) [Ib-1-2]
- Pre-emergence action ALOMY (herbicidal activity in percent) (Alopecurus myosuroides [1]): 100%
- Pre-emergence action AVEFA (herbicidal activity in percent) (Avena fatua [2]): 100%
- Pre-emergence action ECHCG (herbicidal activity in percent) (Echinochloa crus-galli [3]): 100%
- Pre-emergence action LOLMU (herbicidal activity in percent) (Lolium multiflorum [4]): 100%
- Pre-emergence action SETVI (herbicidal activity in percent) (Setaria viridis [5]): 100%
- Post-emergence effectiveness ALOMY (herbicidal action in percent) (Alopecurus myosuroides [6]): 100%
- Post-emergence effectiveness AVEFA (herbicidal action in percent) (Avena fatua [7]): 100%
- Post-emergence effectiveness ECHCG (herbicidal action in percent) (Echinochloa crus-galli [8]): 100%
- Post-emergence effectiveness LOLMU (herbicidal action in percent) (Lolium multiflorum [9]): 100%
- Post-emergence effectiveness SETVI (herbicidal action in percent) (Setaria viridis [10]): 100%

Compound: CCc1cc(C)cc(CC)c1C1=C(OC(=O)C(C)(C)C)C2CCOCCN2C1=O (centres unmarked) [Ib-1-3]
- Pre-emergence action ALOMY (herbicidal activity in percent) (Alopecurus myosuroides [1]): 100%
- Pre-emergence action AVEFA (herbicidal activity in percent) (Avena fatua [2]): 100%
- Pre-emergence action ECHCG (herbicidal activity in percent) (Echinochloa crus-galli [3]): 100%
- Pre-emergence action LOLMU (herbicidal activity in percent) (Lolium multiflorum [4]): 100%
- Pre-emergence action SETVI (herbicidal activity in percent) (Setaria viridis [5]): 100%
- Post-emergence effectiveness ALOMY (herbicidal action in percent) (Alopecurus myosuroides [6]): 100%
- Post-emergence effectiveness AVEFA (herbicidal action in percent) (Avena fatua [7]): 100%
- Post-emergence effectiveness ECHCG (herbicidal action in percent) (Echinochloa crus-galli [8]): 100%
- Post-emergence effectiveness LOLMU (herbicidal action in percent) (Lolium multiflorum [9]): 100%
- Post-emergence effectiveness SETVI (herbicidal action in percent) (Setaria viridis [10]): 100%

Compound: CCc1cc(C)cc(CC)c1C1=C(OC(C)=O)C2CCOCCN2C1=O (centres unmarked) [Ib-1-4]
- Pre-emergence action ALOMY (herbicidal activity in percent) (Alopecurus myosuroides [1]): 100%
- Pre-emergence action AVEFA (herbicidal activity in percent) (Avena fatua [2]): 100%
- Pre-emergence action ECHCG (herbicidal activity in percent) (Echinochloa crus-galli [3]): 100%
- Pre-emergence action LOLMU (herbicidal activity in percent) (Lolium multiflorum [4]): 100%
- Pre-emergence action SETVI (herbicidal activity in percent) (Setaria viridis [5]): 100%
- Post-emergence effectiveness ALOMY (herbicidal action in percent) (Alopecurus myosuroides [6]): 100%
- Post-emergence effectiveness AVEFA (herbicidal action in percent) (Avena fatua [7]): 100%
- Post-emergence effectiveness ECHCG (herbicidal action in percent) (Echinochloa crus-galli [8]): 100%
- Post-emergence effectiveness LOLMU (herbicidal action in percent) (Lolium multiflorum [9]): 100%
- Post-emergence effectiveness SETVI (herbicidal action in percent) (Setaria viridis [10]): 100%
